Source: paper PMC2248166, “Quantitative peptide binding motifs for 19 human and mouse MHC class I molecules derived using positional scanning combinatorial peptide libraries” (Immunome Research, 2008)

Experiments:
HLA B*0702 = HLA B*0702 (Homo sapiens, UniProt P01889); type: binding; conditions: positional scanning combinatorial 9-mer library; normalized to 1.0 for the best residue at each position
H-2 K^k = H-2 K^k (Mus musculus, UniProt P04223); type: binding
HLA B*1503 = HLA B*1503 (Homo sapiens, UniProt P01889, A329T/A93T/A95T/C349S/D201E/D98Y/E187L/E204Q/K202T/N87E/Q94N/R155S/R180L/S121R/S35A/V306I/V36M/Y140S/Y91S); assay: biochemical; type: binding
HLA A*0201 = HLA A*0201 (Homo sapiens, UniProt P04439, D140Y/D185E/D98H/E176V/E277Q/G131W/G231S/I119V/I121R/I166T/I218V/L300P/L318F/N151K/N90K/P208A/P217A/Q86G/Q94H/R138H/R169H/T345S); conditions: positional scanning combinatorial 9-mer library; normalized to 1.0 for the best residue at each position
HLA B*0801 = HLA B*0801 (Homo sapiens, UniProt P01889, A93T/A95T/D138N/E176V/E187T/K202T/Q94N/R180D/S35A/V36M/Y33D/Y91F); assay: biochemical; type: binding
HLA B*3501 = HLA B*3501 (Homo sapiens, UniProt P01889, A329T/A93T/A95T/C349S/D201E/D98Y/E176V/E187L/E204Q/E69T/I218V/K202T/L119I/Q94N/R155S/R180L/S121R/S35A/S48A/T118I/V127L/V306I/V36M/Y140S/Y91F); type: binding
HLA A*6802 = HLA A*6802 (Homo sapiens, UniProt P04439, A269V/D140Y/D185E/E176V/E277Q/E87N/F33Y/G231S/I121R/I166T/I218V/L180W/L300P/L318F/N151K/P208A/P217A/Q86R/R138H/R169H/S129P/T345S/V36M); type: binding
H-2 D^b = H-2 D^b (Mus musculus, UniProt P01899); type: binding
HLA B*5802 = HLA B*5802 (Homo sapiens, UniProt P01889, A329T/C349S/D201E/D98Y/E176V/E187L/E204Q/E69T/G107R/I218V/I90N/K202T/L105A/N104I/N87E/Q89R/Q94S/R106L/R155S/R180L/R86G/S101N/S121W/S35A/S48A/V127L/V306I/V36M/Y140S/Y91M); type: binding
HLA B*5401 = HLA B*5401 (Homo sapiens, UniProt P01889, A329T/C349S/D138N/D201E/E176V/E187T/E204Q/E69G/I76V/K202T/L119W/R155S/R180L/S121T/S35A/S48A/V127L/V306I/V36M/Y140L); type: binding
HLA B*5301 = HLA B*5301 (Homo sapiens, UniProt P01889, A329T/A93T/A95T/C349S/D201E/D98Y/E176V/E187L/E204Q/E69T/G107R/I218V/K202T/L105A/L119I/N104I/Q94N/R106L/R155S/R180L/S101N/S121R/S35A/S48A/T118I/V127L/V306I/V36M/Y140S/Y91F); type: binding
HLA B*2705 = HLA B*2705 (Homo sapiens, UniProt P01889, D138H/D201E/E176V/E204Q/G107R/H137Y/K202T/N104T/N87E/Q56L/Q94K/R106L/R155S/R180L/S101D/S121N/S48T/Y140D/Y33H/Y91C); type: binding; conditions: positional scanning combinatorial 9-mer library; normalized to 1.0 for the best residue at each position
HLA A*3201 = HLA A*3201 (Homo sapiens, UniProt P04439, A270S/D101S/D185E/E176V/E277Q/F133L/G103R/G107R/G231S/H175R/I121M/I218V/I322F/K168Q/L105A/L300P/L318F/M331R/P208A/P217A/Q94H/R106L/R138Q/S129P/T104I/T323A/T345S/V100E/V321M/V358M); assay: biochemical; type: binding
HLA A*3001 = HLA A*3001 (Homo sapiens, UniProt P04439, D140H/D185E/E176W/F33S/G80R/H175R/K168Q/R138E/R41S); assay: biochemical; type: binding
HLA B*5101 = HLA B*5101 (Homo sapiens, UniProt P01889, A329T/A93T/A95T/C349S/D138N/D201E/D98Y/E187L/E204Q/E69T/G107R/I218V/K202T/L105A/L119W/N104I/Q94N/R106L/R155S/R180L/S101N/S121T/S35A/S48A/V306I/V36M/Y195H/Y91F); type: binding
H-2 D^d = H-2 D^d (Mus musculus, UniProt P01900); type: binding
HLA B*5801 = HLA B*5801 (Homo sapiens, UniProt P01889, A329T/C349S/D201E/D98Y/E176V/E187L/E204Q/E69T/G107R/I218V/I90N/K202T/L105A/L119I/N104I/N87E/Q89R/Q94S/R106L/R155S/R180L/R86G/S101N/S121R/S35A/S48A/T118I/V127L/V306I/V36M/Y140S/Y91M); type: binding
HLA B*1501 = HLA B*1501 (Homo sapiens, UniProt P01889, A329T/A93T/A95T/C349S/D201E/D98Y/E187L/E204Q/E69M/E70A/K202T/N87E/Q94N/R155S/R180W/S121R/S35A/S48A/V306I/V36M/Y140S/Y91S); assay: biochemical; type: binding

H-2 D^b, sequence (P01887 21-119): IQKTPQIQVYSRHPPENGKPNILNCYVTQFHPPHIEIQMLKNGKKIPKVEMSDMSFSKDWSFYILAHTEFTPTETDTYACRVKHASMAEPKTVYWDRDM
H-2 D^b, sequence (P01899 25-362): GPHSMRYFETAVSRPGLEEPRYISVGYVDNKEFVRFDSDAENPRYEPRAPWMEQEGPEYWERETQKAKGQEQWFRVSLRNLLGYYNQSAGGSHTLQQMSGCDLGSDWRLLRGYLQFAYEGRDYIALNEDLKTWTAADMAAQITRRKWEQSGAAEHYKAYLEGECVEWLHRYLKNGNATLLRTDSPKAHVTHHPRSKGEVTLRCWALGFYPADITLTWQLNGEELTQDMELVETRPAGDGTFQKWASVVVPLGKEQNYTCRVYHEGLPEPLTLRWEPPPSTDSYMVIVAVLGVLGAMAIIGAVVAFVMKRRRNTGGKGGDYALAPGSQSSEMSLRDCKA
H-2 K^k, sequence (P01887 21-119): as the sequence (P01887 21-119) above
H-2 K^k, sequence (P04223 22-369): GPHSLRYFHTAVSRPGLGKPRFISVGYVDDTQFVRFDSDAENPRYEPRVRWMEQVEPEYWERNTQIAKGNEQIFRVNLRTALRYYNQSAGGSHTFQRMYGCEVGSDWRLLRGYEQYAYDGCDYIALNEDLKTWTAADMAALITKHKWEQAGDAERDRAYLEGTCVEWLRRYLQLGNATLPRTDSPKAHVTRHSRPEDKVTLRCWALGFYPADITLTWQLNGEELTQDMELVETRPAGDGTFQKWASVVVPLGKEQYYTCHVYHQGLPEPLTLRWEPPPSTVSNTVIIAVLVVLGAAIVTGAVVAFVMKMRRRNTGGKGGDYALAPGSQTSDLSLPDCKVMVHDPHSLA
H-2 D^d, sequence (P01900 whole entry, looked up): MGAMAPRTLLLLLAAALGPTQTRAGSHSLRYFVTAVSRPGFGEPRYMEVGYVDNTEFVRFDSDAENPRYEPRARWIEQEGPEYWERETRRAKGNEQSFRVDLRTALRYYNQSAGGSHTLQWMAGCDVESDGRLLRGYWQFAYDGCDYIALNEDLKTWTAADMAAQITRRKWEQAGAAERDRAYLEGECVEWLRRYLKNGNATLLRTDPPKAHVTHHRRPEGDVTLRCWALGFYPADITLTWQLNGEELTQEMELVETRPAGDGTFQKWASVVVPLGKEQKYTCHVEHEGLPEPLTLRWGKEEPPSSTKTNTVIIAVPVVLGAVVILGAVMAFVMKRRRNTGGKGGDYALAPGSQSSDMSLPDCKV

| Sequence | Normalized average relative binding affinity (ARB), HLA B*0702 (HLA B*0702) | Normalized average relative binding affinity (ARB), H-2 Kk (H-2 K^k) | Normalized average relative binding affinity (ARB), HLA B*1503 (HLA B*1503) | Normalized average relative binding affinity (ARB), HLA A*0201 (HLA A*0201) | Normalized average relative binding affinity (ARB), HLA B*0801 (HLA B*0801) | Normalized average relative binding affinity (ARB), HLA B*3501 (HLA B*3501) | Normalized average relative binding affinity (ARB), HLA A*6802 (HLA A*6802) | Normalized average relative binding affinity (ARB), H-2 Db (H-2 D^b) | Normalized average relative binding affinity (ARB), HLA B*5802 (HLA B*5802) | Normalized average relative binding affinity (ARB), HLA B*5401 (HLA B*5401) | Normalized average relative binding affinity (ARB), HLA B*5301 (HLA B*5301) | Normalized average relative binding affinity (ARB), HLA B*2705 (HLA B*2705) | Normalized average relative binding affinity (ARB), HLA A*3201 (HLA A*3201) | Normalized average relative binding affinity (ARB), HLA A*3001 (HLA A*3001) | Normalized average relative binding affinity (ARB), HLA B*5101 (HLA B*5101) | Normalized average relative binding affinity (ARB), H-2 Dd (H-2 D^d) | Normalized average relative binding affinity (ARB), HLA B*5801 (HLA B*5801) | Normalized average relative binding affinity (ARB), HLA B*1501 (HLA B*1501) |
| --- | --- | --- | --- | --- | --- | --- | --- | --- | --- | --- | --- | --- | --- | --- | --- | --- | --- | --- |
| XXHXXXXXX [3064.0047] | 0.39 | 0.72 | 0.19 | 0.27 | 0.35 | 0.094 | 0.14 | 0.20 | 0.42 | 0.013 | 0.059 | 0.26 | 0.24 | 0.089 | 0.60 | 0.0028 | 0.19 | 0.68 |
| XXIXXXXXX [3064.0048] | 0.12 | 0.26 | 0.17 | 0.54 | 0.15 | 0.16 | 0.38 | 0.24 | 1.0 | 0.083 | 0.26 | 0.22 | 0.60 | 0.020 | 0.39 | 0.0041 | 0.77 | 1.0 |
| XXKXXXXXX [3064.0049] | 0.20 | 0.39 | 0.095 | 0.016 | 0.96 | 0.096 | 0.11 | 0.028 | 0.081 | 0.015 | 0.019 | 0.21 | 0.092 | 0.20 | 0.20 | 0.0033 | 0.020 | 0.53 |
| XXLXXXXXX [3064.0050] | 0.071 | 0.70 | 0.043 | 0.57 | 0.21 | 0.43 | 0.10 | 1.0 | 0.59 | 0.040 | 0.59 | 0.55 | 0.58 | 0.033 | 0.54 | 0.0040 | 0.61 | 0.18 |
